Data from publication PMC9743094, “Synthesis and Evaluation of Polymyxins Bearing Reductively Labile Disulfide-Linked Lipids” (Journal of Medicinal Chemistry, 2022).
In brackets after ≈: the same amount, converted by molar mass. Positions of bridges follow the written chain, without caps; N, C: chain ends. Non-standard residues stand in square brackets, D forms with d. Residues, ends and D or L forms follow the SMILES beside them. *: point of attachment. Phenylthio(4-OPh) = c1ccc(Oc2ccc(S*)cc2)cc1; S(2-cyclohexylethyl) = C1CCC(CCS*)CC1; S(3-Methylbutyl) = CC(C)CCS*; X6 = c1ccc(-c2ccc(S*)cc2)cc1; Dab = NCC[C@H](N)C(=O)O; X1 = CC(C)CCCCS*; X4 = CCCCCCS*

Tests used:
[1] = test system: P. aeruginosa (ATCC 27853); type: cell-based; details: ATCC 27853
Protocol: (§1) Minimum inhibitory concentrations (MICs) on relevant Gram-negative bacteria were determined by broth microdilution, in accordance with CLSI guidelines. Indicated bacteria were taken from glycerol stocks and incubated overnight on blood agar at 37 °C. Well-isolated colonies were taken, suspended in TSB (5 mL), and grown to an OD600 of 0.5. Compounds to be tested were dissolved in DMSO (6.4 mg/mL), diluted in cation-adjusted Mueller–Hinton Broth (CAMHB) (12.5 and 20 μg/mL Mg^2+ and Ca^2+, respectively), and diluted serially on polypropylene microtiter plates. To the diluted compounds (50 μL per well) was added 50 μL of relevant bacterial suspension, to yield a final concentration of 10^6 CFU/mL. Plates were covered by adhesive gas-permeable membranes and incubated at 37 °C. MIC was read out as the lowest concentration that inhibited visual bacterial growth. Shown values are consistent results from at least duplicate experiments.

[2] = test system: K. pneumoniae (ATCC 13883); type: cell-based; details: ATCC 13883
Protocol: as §1

[3] = test system: A. baumannii (ATCC 19606); type: cell-based; details: ATCC 19606
Protocol: as §1

[4] = test system: E. coli (ATCC 25922); type: cell-based; details: ATCC 25922
Protocol: as §1

[5] = test system: differentiated conditionally immortalized PTECs (ciPTECs, OAT-1); assay: ciPTEC toxicity assay (PrestoBlue); type: cell-based, human
Protocol: ciPTECs (OAT-1) cells,[52],[53] grown to 90–100% confluence, were washed by Hanks’ balanced salt solution (HBSS; Gibco, Life Technologies, Paisley, U.K.) and detached by accutase (4 mL) for 5 min at 37 °C. The cells were then suspended in fresh medium (DMEM/F-12, supplemented with 10% fetal calf serum, insulin (5 μg/mL), transferrin (5 μg/mL), selenium (5 μg/mL) hydrocortisone (35 ng/mL), Epidermal Growth Factor (10 ng/mL) and tri-iodothyronine (40 pg/mL)). Cell density was adjusted to 2.0 × 10^5 cells/mL, of which 100 μL was added to each well of a 96-well plate. The cells were incubated for 24 h at 33 °C, followed by 6 days at 37 °C, in a humidified atmosphere containing 5% (v/v) CO2. The medium was refreshed every second or third day.
Compounds were dissolved and serially diluted in serum-free medium. Differentiated cells were washed once with HBSS and serially diluted compounds (80 μL/well) were transferred to the ciPTEC-containing plate. Compounds were incubated for 24 h at 37 °C; the cells were washed by HBSS, followed by incubation with 10% PrestoBlue cell viability reagent (Thermo Scientific, Vienna, Austria) in HBSS at 37 °C in the dark. Fluorescence was recorded (excitation: 530 nm, emission: 590 nm). Raw data are corrected for PrestoBlue background fluorescence and reported relative to the no-treatment control (cells with medium only). Viability data were fitted with GraphPad Prism software (version 5.03; GraphPad Software, La Jolla, CA), by nonlinear regression with 0 as bottom constraint. Presented data are based on triplicates.
Toxicity assessment on PTECs
Table S1. TC50 values for polymyxin analogues. Toxicity assessment on proximal tubular epithelial cells
performed using PrestoBlue™ assay. TC50 values are derived after non-linear regression analysis on cell viability
correspond to data obtained from 2 different batches of cells/analyses on different days. As the value for
polymyxin B differs 2-fold, values in the manuscript are presented relative to the polymyxin B value.
Compound TC50 (µ M) Compound TC50 (µ M)
Polymyxin B 80 Polymyxin B 41
Figure S3. Representative traces of ciPTECs’ viability after incubation with analogues for 24 hours. Shown data are based on […]

MIC P. aeruginosa (ATCC 27853) [1]	MIC K. pneumoniae (ATCC 13883) [2]	MIC A. baumannii (ATCC 19606) [3]	MIC E. coli (ATCC 25922) [4]	Compound	TC50, Day 1 [5]	ciPTEC Toxicity Index (relative to polymyxin B) [5]
2 µg/mL (≈ 1.67 µM)	1 µg/mL (≈ 0.836 µM)	4 µg/mL (≈ 3.34 µM)	2 µg/mL (≈ 1.67 µM)	CC(C)CCCCSSC[C@H](N)C(=O)N[C@H](C(=O)N[C@@H](CCN)C(=O)N[C@H]1CCNC(=O)[C@H]([C@@H](C)O)NC(=O)[C@H](CCN)NC(=O)[C@H](CCN)NC(=O)[C@H](CC(C)C)NC(=O)[C@@H](Cc2ccccc2)NC(=O)[C@H](CCN)NC1=O)[C@@H](C)O [Compound 20a] (H-C(X1)T[Dab][Dab][Dab][dF]L[Dab][Dab]T; lactam 4-C)	–	–
2 µg/mL (≈ 1.61 µM)	1 µg/mL (≈ 0.807 µM)	2 µg/mL (≈ 1.61 µM)	4 µg/mL (≈ 3.23 µM)	CCCCCCSSC[C@H](NC(=O)CN)C(=O)N[C@H](C(=O)N[C@@H](CCN)C(=O)N[C@H]1CCNC(=O)[C@H]([C@@H](C)O)NC(=O)[C@H](CCN)NC(=O)[C@H](CCN)NC(=O)[C@H](CC(C)C)NC(=O)[C@@H](Cc2ccccc2)NC(=O)[C@H](CCN)NC1=O)[C@@H](C)O [Compound 21a] (H-GC(X4)T[Dab][Dab][Dab][dF]L[Dab][Dab]T; lactam 5-C)	–	–
2 µg/mL (≈ 1.63 µM)	2 µg/mL (≈ 1.63 µM)	4 µg/mL (≈ 3.26 µM)	–	CC(C)CCSSC[C@H](NC(=O)CN)C(=O)N[C@H](C(=O)N[C@@H](CCN)C(=O)N[C@H]1CCNC(=O)[C@H]([C@@H](C)O)NC(=O)[C@H](CCN)NC(=O)[C@H](CCN)NC(=O)[C@H](CC(C)C)NC(=O)[C@@H](Cc2ccccc2)NC(=O)[C@H](CCN)NC1=O)[C@@H](C)O [Compound 22a] (H-GC(S(3-Methylbutyl))T[Dab][Dab][Dab][dF]L[Dab][Dab]T; lactam 5-C)	305 µM	3.8
8 µg/mL (≈ 6.4 µM)	4 µg/mL (≈ 3.2 µM)	32 µg/mL (≈ 25.6 µM)	4 µg/mL (≈ 3.2 µM)	CC(C)C[C@@H]1NC(=O)[C@@H](Cc2ccccc2)NC(=O)[C@H](CCN)NC(=O)[C@@H](NC(=O)[C@H](CCN)NC(=O)[C@@H](NC(=O)[C@@H](N)CSSc2ccc(-c3ccccc3)cc2)[C@@H](C)O)CCNC(=O)[C@H]([C@@H](C)O)NC(=O)[C@H](CCN)NC(=O)[C@H](CCN)NC1=O [Compound 29a] (H-C(X6)T[Dab][Dab][Dab][dF]L[Dab][Dab]T; lactam 4-C)	–	–
8 µg/mL (≈ 6.4 µM)	2 µg/mL (≈ 1.6 µM)	8 µg/mL (≈ 6.4 µM)	8 µg/mL (≈ 6.4 µM)	CC(C)C[C@@H]1NC(=O)[C@@H](Cc2ccccc2)NC(=O)[C@H](CCN)NC(=O)[C@@H](NC(=O)[C@H](CCN)NC(=O)[C@@H](NC(=O)[C@H](N)CSSc2ccc(-c3ccccc3)cc2)[C@@H](C)O)CCNC(=O)[C@H]([C@@H](C)O)NC(=O)[C@H](CCN)NC(=O)[C@H](CCN)NC1=O [Compound 29b] (H-[dC](X6)T[Dab][Dab][Dab][dF]L[Dab][Dab]T; lactam 4-C)	–	–
4 µg/mL (≈ 3.16 µM)	4 µg/mL (≈ 3.16 µM)	>32 µg/mL	4 µg/mL (≈ 3.16 µM)	CC(C)C[C@@H]1NC(=O)[C@@H](Cc2ccccc2)NC(=O)[C@H](CCN)NC(=O)[C@@H](NC(=O)[C@H](CCN)NC(=O)[C@@H](NC(=O)[C@@H](N)CSSc2ccc(Oc3ccccc3)cc2)[C@@H](C)O)CCNC(=O)[C@H]([C@@H](C)O)NC(=O)[C@H](CCN)NC(=O)[C@H](CCN)NC1=O [Compound 30a] (H-C(Phenylthio(4-OPh))T[Dab][Dab][Dab][dF]L[Dab][Dab]T; lactam 4-C)	–	–
4 µg/mL (≈ 3.16 µM)	2 µg/mL (≈ 1.58 µM)	4 µg/mL (≈ 3.16 µM)	4 µg/mL (≈ 3.16 µM)	CC(C)C[C@@H]1NC(=O)[C@@H](Cc2ccccc2)NC(=O)[C@H](CCN)NC(=O)[C@@H](NC(=O)[C@H](CCN)NC(=O)[C@@H](NC(=O)[C@H](N)CSSc2ccc(Oc3ccccc3)cc2)[C@@H](C)O)CCNC(=O)[C@H]([C@@H](C)O)NC(=O)[C@H](CCN)NC(=O)[C@H](CCN)NC1=O [Compound 30b] (H-[dC](Phenylthio(4-OPh))T[Dab][Dab][Dab][dF]L[Dab][Dab]T; lactam 4-C)	–	–
8 µg/mL (≈ 6.12 µM)	2 µg/mL (≈ 1.53 µM)	16 µg/mL (≈ 12.2 µM)	4 µg/mL (≈ 3.06 µM)	CC(C)C[C@@H]1NC(=O)[C@@H](Cc2ccccc2)NC(=O)[C@H](CCN)NC(=O)[C@@H](NC(=O)[C@H](CCN)NC(=O)[C@@H](NC(=O)[C@H](CSSc2ccc(-c3ccccc3)cc2)NC(=O)CN)[C@@H](C)O)CCNC(=O)[C@H]([C@@H](C)O)NC(=O)[C@H](CCN)NC(=O)[C@H](CCN)NC1=O [Compound 31a] (H-GC(X6)T[Dab][Dab][Dab][dF]L[Dab][Dab]T; lactam 5-C)	–	–
8 µg/mL (≈ 6.12 µM)	4 µg/mL (≈ 3.06 µM)	16 µg/mL (≈ 12.2 µM)	8 µg/mL (≈ 6.12 µM)	CC(C)C[C@@H]1NC(=O)[C@@H](Cc2ccccc2)NC(=O)[C@H](CCN)NC(=O)[C@@H](NC(=O)[C@H](CCN)NC(=O)[C@@H](NC(=O)[C@@H](CSSc2ccc(-c3ccccc3)cc2)NC(=O)CN)[C@@H](C)O)CCNC(=O)[C@H]([C@@H](C)O)NC(=O)[C@H](CCN)NC(=O)[C@H](CCN)NC1=O [Compound 31b] (H-G[dC](X6)T[Dab][Dab][Dab][dF]L[Dab][Dab]T; lactam 5-C)	–	–
8 µg/mL (≈ 6.04 µM)	4 µg/mL (≈ 3.02 µM)	32 µg/mL (≈ 24.2 µM)	8 µg/mL (≈ 6.04 µM)	CC(C)C[C@@H]1NC(=O)[C@@H](Cc2ccccc2)NC(=O)[C@H](CCN)NC(=O)[C@@H](NC(=O)[C@H](CCN)NC(=O)[C@@H](NC(=O)[C@H](CSSc2ccc(Oc3ccccc3)cc2)NC(=O)CN)[C@@H](C)O)CCNC(=O)[C@H]([C@@H](C)O)NC(=O)[C@H](CCN)NC(=O)[C@H](CCN)NC1=O [Compound 32a] (H-GC(Phenylthio(4-OPh))T[Dab][Dab][Dab][dF]L[Dab][Dab]T; lactam 5-C)	–	–
4 µg/mL (≈ 3.02 µM)	4 µg/mL (≈ 3.02 µM)	8 µg/mL (≈ 6.04 µM)	8 µg/mL (≈ 6.04 µM)	CC(C)C[C@@H]1NC(=O)[C@@H](Cc2ccccc2)NC(=O)[C@H](CCN)NC(=O)[C@@H](NC(=O)[C@H](CCN)NC(=O)[C@@H](NC(=O)[C@@H](CSSc2ccc(Oc3ccccc3)cc2)NC(=O)CN)[C@@H](C)O)CCNC(=O)[C@H]([C@@H](C)O)NC(=O)[C@H](CCN)NC(=O)[C@H](CCN)NC1=O [Compound 32b] (H-G[dC](Phenylthio(4-OPh))T[Dab][Dab][Dab][dF]L[Dab][Dab]T; lactam 5-C)	–	–

Compound	MIC P. aeruginosa (ATCC 27853) [1]	MIC K. pneumoniae (ATCC 13883) [2]	MIC A. baumannii (ATCC 19606) [3]	MIC E. coli (ATCC 25922) [4]	TC50, Day 1 [5]	ciPTEC Toxicity Index (relative to polymyxin B) [5]
CC(C)C[C@@H]1NC(=O)[C@@H](Cc2ccccc2)NC(=O)[C@H](CCN)NC(=O)[C@@H](NC(=O)[C@H](CCN)NC(=O)[C@@H](NC(=O)[C@@H](N)CSSCCC2CCCCC2)[C@@H](C)O)CCNC(=O)[C@H]([C@@H](C)O)NC(=O)[C@H](CCN)NC(=O)[C@H](CCN)NC1=O [Compound 19a] (H-C(S(2-cyclohexylethyl))T[Dab][Dab][Dab][dF]L[Dab][Dab]T; lactam 4-C)	4 µg/mL (≈ 3.31 µM)	4 µg/mL (≈ 3.31 µM)	32 µg/mL (≈ 26.5 µM)	8 µg/mL (≈ 6.62 µM)	–	–
